Source: US20240408222A1, “COMPOUNDS, PHARMACEUTICAL COMPOSITIONS, AND METHODS FOR THE TREATMENT, PREVENTION, OR MANAGEMENT OF HYPERPRO[…]” (VINCERX PHARMA GMBH, priority 2021, published 2024)
Read-outs that look alike come from different tables or passages of the source.

Key:
[1] = test system: 786-O; assay: Cytotoxicity in vitro (MTT) in presence/absence of elastase; assay type: cell-based, human; settings: 72 h
Method: (§1) Cultivation of cells was performed according to standard procedures with the media recommended by the provider. The cells, in a total volume of 100 μL, were seeded in a 96-well plate with a white bottom (#3610). After a 24 h incubation period at 37° C. and […], the medium was exchanged by adding 90 μL fresh medium. The treatment started by adding the test compound in 10 μL of culture medium to the cells in triplicates. Concentrations ranging from 10^−5 M to 10^−13 M were chosen. Two identically treated sets of samples were prepared. One set was treated with the test compound alone, whereas to the second set the compound and 10 nM elastase was added followed by a 72 h incubation period at 37° C. and […]. The proliferation was detected using the MTT assay (ATCC). At the end of the incubation period the MTT reagent was added to all samples for 4 h. Lysis of the cells followed by addition of the detergent was done overnight. The formed dye was detected at 570 nm. The proliferation of untreated but otherwise identically handled cells was define as the 100% value.

[2] = test system: HT29; assay: as above; assay type: cell-based, human; settings: 72 h
Method: as §1

[3] = test system: NCI H292; assay: as above; assay type: cell-based, human; settings: 72 h
Method: as §1

[4] = test system: SUM149; assay: as above; assay type: cell-based; settings: 72 h
Method: as §1

[5] = test system: 786-O; assay: Cytotoxicity assay (Version 2, automated, AC50) with/without neutrophil elastase; assay type: cell-based, human; settings: Version 2, activity concentration at −50%
How it was run: (§2)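 An automated MTT read-out (570 nm, 4 h reagent) followed 72 h at 37 °C with compound from 10^−5 to 10^−13 M, in triplicate, tested with and without 10 nM elastase. AC50, the concentration giving −50% metabolic activity, came from a 4-parameter Hill fit. Scaling ran from medium-only wells (−100%) to DMSO controls (0%).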

[6] = test system: HT29; assay: as above; assay type: cell-based, human; settings: Version 2, activity concentration at −50%
How it was run: as §2

[7] = test system: NCI H292; assay: as above; assay type: cell-based, human; settings: NCI H292, with (+) neutrophil elastase, Version 2, activity concentration at −50%
How it was run: as §2

[8] = test system: SUM149; assay: as above; assay type: cell-based; settings: Version 2, activity concentration at −50%
How it was run: as §2

[9] = 37° C.
Method: Method for measurement of stability in rat and human plasma: 1 mg of the test compound was dissolved in 0.5 ml acetonitrile/dimethylsulfoxide 1:1. For complete dissolution the HPLC vial was shaken and sonicated. While vortexing, 20 μl of this solution was added to 1 ml 37° C. warm plasma. After 10 min, 0.5 h, 1 h, 1.5 h, 2 h, and 4 h, the assay was stopped by adding 100 μl of the compound plasma solution to a vial containing 300 μl acetonitrile/buffer pH 3 (80:20) at RT. The mixture was centrifuged at 5000 rpm for 10 minutes. The supernatant was analyzed by HPLC to determine the amount of the test compound and up to two byproducts. To values resulted from a processed sample immediately taken after vortexing with plasma at RT. The peak areas (in percentage) were used for quantification. All data was given as percent area of the initial compound at to. The results of these assays are shown in FIG. 1 and FIG. 2 for rat and human plasma, respectively.

[10] = buffer pH 7.4, 37° C.
Method: Method for measurement of stability in buffer: 0.15 mg of the test compound was dissolved in 0.1 ml dimethylsulfoxide and 0.4 ml acetonitrile. For complete dissolution, the HPLC vial with the sample solution was shaken and sonicated. Then 1.0 ml of the respective buffer solution was added, and the sample was vortexed. The sample solution was analysed by HPLC to determine the amount of the test compound and up to two byproducts at a particular time over a period of 24 h at 37° C. […] The peak areas (in percentage) were used for quantification.

[11] = without (−) neutrophil elastase
[12] = HT29, without (−) neutrophil elastase
[13] = SUM149, without (−) neutrophil elastase

## CCCNC(=O)Nc1cccc(S(=O)(=O)Nc2cccc([C@@H](CC(=O)[O-])NC(=O)Nc3ccc(NC(=O)NCCOCCOCCOCCC(=O)N[C@@H](CC(=O)[O-])C(=O)N4CCC[C@H]4C(=O)N[C@H](C(=O)N=[S@@](C)(=O)Cc4cc5cc(c4)OCCCCOc4cc(F)ccc4-c4nc(ncc4F)N5)C(C)C)cc3)c2)c1.[Na+].[Na+] [Compound 3]
[1]; with (+) 10 nM neutrophil elastase
  IC50: ≤ 1 nM
[1]; [11]
  IC50: > 100 nM
[2]; HT29, with (+) 10 nM neutrophil elastase
  IC50: ≤ 1 nM
[2]; [12]
  IC50: > 100 nM
[3]; NCI H292, with (+) 10 nM neutrophil elastase
  IC50: ≤ 1 nM
[3]; NCI H292, without (−) neutrophil elastase
  IC50: > 100 nM
[4]; SUM149, with (+) 10 nM neutrophil elastase
  IC50: ≤ 1 nM
[4]; [13]
  IC50: > 100 nM
[5]; with (+) neutrophil elastase
  AC50: 11 to 100 nM
[5]; [11]
  AC50: > 1000 nM
[6]; HT29, with (+) neutrophil elastase
  AC50: 11 to 100 nM
[6]; [12]
  AC50: > 1000 nM
[7]
  AC50: 11 to 100 nM
[8]; SUM149, with (+) neutrophil elastase
  AC50: 11 to 100 nM
[8]; [13]
  AC50: 100 to 1000 nM
[9]; human plasma
  time stable in plasma (no significant degradation): at least 4 h
[9]; rat plasma
  time stable in plasma (no significant degradation): at least 4 h
[10]
  time stable in buffer (no significant degradation): at least 24 h
